Measurements as given in PubChem BioAssay AID1963423 (Molecular Pharmacology Branch, DTP, NCI, 2024).

Tested on: 439559-082-T-J2-PDC complex spheroid growth
Experiment: Anticancer human tumor 439559-082-T-J2-PDC patient-derived colon adenocarcinoma cell line growth inhibition [Asc]
Conditions: for IC50: curve of first compound; for viability, T/C: stronger effect = lower value
Outline: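 Complex spheroids combining tumor cells with HUVEC endothelial cells and human MSCs, at 37 degrees C, 5% CO2; agents tested alone or combined, half-log dilutions from at or near clinical Cmax, or 10 microM if Cmax unknown.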

[1] = second compound 0.00316 µM, first compound 0.0316 µM
[2] = second compound 0.00316 µM, first compound 0.1 µM
[3] = second compound 0.00316 µM, first compound 0.316 µM
[4] = second compound 0.00316 µM, first compound 1 µM
[5] = second compound 0.00316 µM, first compound 3.16 µM
[6] = second compound 0.00316 µM, first compound 10 µM
[7] = second compound 0.01 µM, first compound 0.0316 µM
[8] = second compound 0.01 µM, first compound 0.1 µM
[9] = second compound 0.01 µM, first compound 0.316 µM
[10] = second compound 0.01 µM, first compound 1 µM
[11] = second compound 0.01 µM, first compound 3.16 µM
[12] = second compound 0.01 µM, first compound 10 µM
[13] = second compound 0.0316 µM, first compound 0.0316 µM
[14] = second compound 0.0316 µM, first compound 0.1 µM
[15] = second compound 0.0316 µM, first compound 0.316 µM
[16] = second compound 0.0316 µM, first compound 1 µM
[17] = second compound 0.0316 µM, first compound 3.16 µM
[18] = second compound 0.0316 µM, first compound 10 µM
[19] = second compound 0.1 µM, first compound 0.0316 µM
[20] = second compound 0.1 µM, first compound 0.1 µM
[21] = second compound 0.1 µM, first compound 0.316 µM
[22] = second compound 0.1 µM, first compound 1 µM
[23] = second compound 0.1 µM, first compound 3.16 µM
[24] = second compound 0.1 µM, first compound 10 µM
[25] = second compound 0.316 µM, first compound 0.0316 µM
[26] = second compound 0.316 µM, first compound 0.1 µM
[27] = second compound 0.316 µM, first compound 0.316 µM
[28] = second compound 0.316 µM, first compound 1 µM
[29] = second compound 0.316 µM, first compound 3.16 µM
[30] = second compound 0.316 µM, first compound 10 µM
[31] = second compound 1 µM, first compound 0.0316 µM
[32] = second compound 1 µM, first compound 0.1 µM
[33] = second compound 1 µM, first compound 0.316 µM
[34] = second compound 1 µM, first compound 1 µM
[35] = second compound 1 µM, first compound 3.16 µM
[36] = second compound 1 µM, first compound 10 µM
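Note: spheroids exposed to agents for 7 days starting day 3 after seeding.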
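Throughout, for viability, T/C: percent of DMSO vehicle control viability with 100% = vehicle.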

`C#Cc1c(F)ccc2cc(O)cc(-c3ncc4c(N5CC6CCC(C5)N6)nc(OCC56CCCN5CC(F)C6)nc4c3F)c12` (centres undefined) + CNC(C)C(=O)NC1CN(S(=O)(=O)c2cccc(S(=O)(=O)N3CCC4CCC(C(=O)NC(c5ccccc5)c5ccccc5)N4C(=O)C(NC(=O)C(C)NC)C3)c2)CCC2CCC(C(=O)NC(c3ccccc3)c3ccccc3)N2C1=O gave an IC50 (second compound 0.00316 µM) of 2000 nM, an IC50 (second compound 0.01 µM) of 2620 nM and an IC50 (second compound 0.0316 µM) of 1660 nM. It also gave an IC50 (second compound 0.1 µM) of 1910 nM, an IC50 (second compound 0.316 µM) of 1030 nM and an IC50 (second compound 1 µM) of 269 nM. It also gave a viability, T/C [1] of 103%, a viability, T/C [2] of 76.9% and a viability, T/C [3] of 66.3%. It also gave a viability, T/C [4] of 58.9%, a viability, T/C [5] of 46.9% and a viability, T/C [6] of 38.9%. The viability, T/C [7] was 104%, the viability, T/C [8] was 82% and the viability, T/C [9] was 66.1%. For the same compound, the viability, T/C [10] was 62.9%, the viability, T/C [11] was 48.5% and the viability, T/C [12] was 39.8%. It also gave a viability, T/C [13] of 95%, a viability, T/C [14] of 94.3% and a viability, T/C [15] of 66.8%. The viability, T/C [16] was 54.9%, the viability, T/C [17] was 50% and the viability, T/C [18] was 37.5%. It also gave a viability, T/C [19] of 91.8%, a viability, T/C [20] of 73.8% and a viability, T/C [21] of 65.8%. The viability, T/C [22] was 60.1%, the viability, T/C [23] was 45.3% and the viability, T/C [24] was 34.3%. It also gave a viability, T/C [25] of 84.7%, a viability, T/C [26] of 78.5% and a viability, T/C [27] of 59.4%. The viability, T/C [28] was 51.4%, the viability, T/C [29] was 40% and the viability, T/C [30] was 30.1%. For the same compound, the viability, T/C [31] was 66%, the viability, T/C [32] was 55.2% and the viability, T/C [33] was 50.7%. The viability, T/C [34] was 40%, the viability, T/C [35] was 29% and the viability, T/C [36] was 21.6%.

Compound `C=C(F)C(=O)N1CCN(c2nc(OCC3CCCN3C)nc3c2CCN(c2cccc4cccc(Cl)c24)C3)CC1CC#N` (centres undefined) + CNC(C)C(=O)NC1CN(S(=O)(=O)c2cccc(S(=O)(=O)N3CCC4CCC(C(=O)NC(c5ccccc5)c5ccccc5)N4C(=O)C(NC(=O)C(C)NC)C3)c2)CCC2CCC(C(=O)NC(c3ccccc3)c3ccccc3)N2C1=O has an IC50 (second compound 0.00316 µM) of 5510 nM, an IC50 (second compound 0.01 µM) of 4850 nM and an IC50 (second compound 0.0316 µM) of 4250 nM. The IC50 (second compound 0.1 µM) was 4110 nM, the IC50 (second compound 0.316 µM) was 3520 nM and the IC50 (second compound 1 µM) was 2560 nM. For the same compound, the viability, T/C [1] was 101%, the viability, T/C [2] was 104% and the viability, T/C [3] was 103%. The viability, T/C [4] was 85.6%, the viability, T/C [5] was 94.4% and the viability, T/C [6] was 2.3%. It also gave a viability, T/C [7] of 98.8%, a viability, T/C [8] of 100% and a viability, T/C [9] of 94.9%. It also gave a viability, T/C [10] of 101%, a viability, T/C [11] of 77.3% and a viability, T/C [12] of 3.86%. For the same compound, the viability, T/C [13] was 102%, the viability, T/C [14] was 102% and the viability, T/C [15] was 104%. It also gave a viability, T/C [16] of 104%, a viability, T/C [17] of 67.2% and a viability, T/C [18] of 0.24%. It also gave a viability, T/C [19] of 96.1%, a viability, T/C [20] of 101% and a viability, T/C [21] of 92.2%. The viability, T/C [22] was 87.2%, the viability, T/C [23] was 64.3% and the viability, T/C [24] was 3.14%. It also gave a viability, T/C [25] of 95.4%, a viability, T/C [26] of 90.3% and a viability, T/C [27] of 83.4%. The viability, T/C [28] was 79%, the viability, T/C [29] was 56.3% and the viability, T/C [30] was 0.25%. The viability, T/C [31] was 84.5%, the viability, T/C [32] was 75.3% and the viability, T/C [33] was 82.5%. The viability, T/C [34] was 66.4%, the viability, T/C [35] was 46.3% and the viability, T/C [36] was 0.27%.
